Assay results taken from PMC11073428, “The activity of pyrazolo[4,3-e][1,2,4]triazine and pyrazolo[4,3-e]tetrazolo[1,5-b][1,2,4]triazine sulphonamide derivatives in monolayer and spheroid breast cancer cell cultures” (Journal of Enzyme Inhibition and Medicinal Chemistry, 2024).
Read-outs that look alike come from different tables or passages of the source.

Assays:
[1] = test system: MCF-10A normal breast cells; set-up: method as in PMID 32575817; conditions: 24 h incubation; read-out: IC50 in MCF-10A (previous studies); cited from earlier work
[2] = test system: beclin-1 in MDA-MB-231 cells; experiment: Anti-beclin-1 antibody flow cytometry, MDA-MB-231; type: cell-based, human; conditions: MDA-MB-231, 0.5 µM, 24 h
Description: (§1) The fixation and permeabilisation were performed as described above. Cells were resuspended in 100 µL of diluted primary antibody (1:100 in PBS, anti-beclin 1 antibody (2A4) #ab114071, Abcam, Cambridge, UK) and incubated 30 min in the dark at RT. The cells were washed three times by centrifugation in PBS. Then to each probe, 100 µL of diluted fluorochrome-labelled secondary antibody (1:100 in PBS; goat anti-mouse IgG H&L – Alexa Fluor 488 #ab150113, Abcam, Cambridge, UK) was added and incubated 30 min in dark at RT. Then, cells were rinsed with 2.5 mL PBS. In the last step, supernatant was discarded and cells were resuspended in 300 µL PBS and pipetted. The analysis was carried out by flow cytometry.

beclin-1 in MCF-7 cells = experiment: Anti-beclin-1 antibody flow cytometry, MCF-7; type: cell-based, human; conditions: MCF-7, 0.5 µM, 24 h
Description: as §1

[3] = test system: MCF-7 breast cancer cells; experiment: Apoptosis, annexin V-FITC/PI flow cytometry, MCF-7; type: cell-based, human; conditions: 24 h; for early and late apoptotic cells: MCF-7, 0.5 µM
Description: (§2) The analysis was performed using flow cytometry Apoptosis Detection Kit II (BD Biosciences, San Diego, CA) as described previously.

Bax in MDA-MB-231 cells = experiment: Anti-Bax antibody flow cytometry, MDA-MB-231; type: cell-based, human; conditions: MDA-MB-231, 24 h
Description: (§3) To evaluate the molecular mechanism of induction of apoptosis of tested compounds, the level of p53, NF-κB, mTOR, Bax, and beclin-1 was measured using appropriate antibody according to the manufacturer’s instruction. In brief, tryspinised cells were centrifuged, then supernatant was discarded, and cells were suspended in 4% FA (formaldehyde). Prepared samples were incubated 15 min at RT. Following incubation, the 2.5 mL PBS was added to each sample and centrifuged. Then, supernatant was discarded, and cells were resuspended in 90% ice-cold methanol to perform permeabilisation and left for 1 h in ice. To remove methanol, cells were rinsed with excess PBS by centrifugation. Following centrifugation, the supernatant was discarded. Then, cells were resuspended in 100 µL of appropriate diluted (1:100 in PBS) antibody conjugate (p53 (7F5) Rabbit mAb – Alexa Fluor 488 Conjugate #5429 Cell Signalling Technology, Danvers, MA; NF-κB p65 (D14E12) XP Rabbit mAb – Alexa Fluor 647 Conjugate #8801 Cell Signalling Technology, Danvers, MA; mTOR (7C10) Rabbit mAB – Alexa Fluor 647 #5048 Cell Signalling Technology, Danvers, MA; FITC Anti-Bax antibody (T22-A) #ab139543, Abcam, Cambridge, UK) and incubated 1 h in the dark at RT. Afterwards, cells were washed by centrifugation in 2 mL of incubation buffer. Finally, supernatant was removed and 300 µL PBS was added to each sample and pipetted. The analysis was performed by flow cytometry (BD FACSCanto II, Becton Dickinson Biosciences Systems, San Jose, CA) using FACSDiva software ver. 6.1.3.

[4] = test system: MCF-7 breast cancer cells; set-up: method as in PMID 27488500; conditions: 24 h incubation; read-out: IC50 in MCF-7 (previous studies); cited from earlier work
[5] = test system: MDA-MB-231 breast cancer cells; set-up: method as in PMID 27488500; conditions: 24 h incubation; read-out: IC50 in MDA-MB-231 (previous studies); cited from earlier work
Bax in MCF-7 cells = experiment: Anti-Bax antibody flow cytometry, MCF-7; type: cell-based, human; conditions: MCF-7, 24 h
Description: as §3

[6] = test system: MDA-MB-231 breast cancer cells; experiment: Apoptosis, annexin V-FITC/PI flow cytometry, MDA-MB-231; type: cell-based, human; conditions: 24 h; for early and late apoptotic cells: MDA-MB-231, 0.5 µM
Description: as §2

MDA-MB-231 spheroids = experiment: 3D spheroid culture, MDA-MB-231; type: cell-based, human; conditions: 0.25 µM and 0.5 µM
Description: (§4) The 3D cell culture was carried out with 6-Well Bio-Assembler Kit in accordance with the manufacturer’s instructions (Greiner Bio-One GmbH, Frickenhausen, Germany). First, MCF-7 and MDA-MB-231 were cultured in 2D using procedure and supplied to 80% confluency and treated with nanoshuttle at concentration of 1 µL/10 000 cell and incubated overnight. Following incubation, the medium was removed, and the cells were detached by trypsin–EDTA solution and resuspended in DMEM. The cells were counted using Scepter 2.0 Handheld Automated Cell Counter (Merck, Darmstadt, Germany) and plated at the concentration 1 × 10^6 cells per well in six-well plate. Then, cells were gently tilted in the flask to evenly distribute the nanoparticle and incubated (37 °C, 5% CO2, 95–98% humidity) for 1 h with magnet on the top of the plate. The cells self-assemble to spheroids. The obtained 3D cell culture was incubated until analysis.
(§5) The visualisation of the morphological changes in 3D cell culture of MCF-7 and MDA-MB-231 was evaluated using microscope (Nikon Eclipse Ti, Tokyo, Japan).
(§6) The mean ± standard deviation (SD) for all data is presented. One-way and two-way analysis of variance (ANOVA) was conducted followed by Dunnett’s test. GraphPad 8.0.1 Prism software (GraphPad Software, San Diego, CA) was used for calculation. The analysis of spheroids area was carried out using ImageJ software from the NIH (Bethesda, MD).

MCF-7 spheroids = experiment: 3D spheroid culture, MCF-7; type: cell-based, human; conditions: 0.25 µM and 0.5 µM
Description: as §4, §5, §6

in vitro = conditions: human
[7] = test system: MCF-7 breast cancer cells; experiment: MTT viability assay, MCF-7; conditions: for IC50: Homo sapiens, MCF7, 24 h, read-out: Cytotoxicity IC50 MCF-7
Description: (§7) Following 24-h incubation with tested compounds, the medium was discarded from the cell cultures. Then, into each well with cells was added 1 mL of PBS and 50 µL of MTT solution (5 mg per mL). Cells were incubated at 37 °C and 5% CO2 in humidified atmosphere for a defined time appropriate for each cell line. After incubation, the solution above the cells was removed and obtained purple formazan crystals were dissolved in 1 mL DMSO. The absorbance was read at OD = 570 nm on Evolution 201 Spectrophotometer (Thermo Scientific, Waltham, MA).

[8] = test system: MDA-MB-231 breast cancer cells; experiment: MTT viability assay, MDA-MB-231; conditions: for IC50: Homo sapiens, MDA-MB-231, 24 h, read-out: Cytotoxicity IC50 MDA-MB-231
Description: as §7

[9] = ratio of cytotoxicity, 3a vs 2a, 3b vs 2b

Row | IC50 at 24 h (in vitro) [µM] | melting point [°C] | Structure (SMILES) | IC50 [1] [µM] | cells with active beclin-1 [2] [%] | cells with active beclin-1 (beclin-1 in MCF-7 cells) [%] | early and late apoptotic cells [3] [%] | number of cells with active Bax (in words) (Bax in MDA-MB-231 cells) | IC50 [4] [µM] | IC50 [5] [µM] | number of cells with active Bax (in words) (Bax in MCF-7 cells) | early and late apoptotic cells [6] [%] | effect on spheroid formation (in words) (MDA-MB-231 spheroids) | effect on spheroid formation (in words) (MCF-7 spheroids) | IC50 [7] [µM] | IC50 [8] [µM] | apoptotic cells ([3]; MCF-7, 0.25 µM) [%] | apoptotic cells ([6]; MDA-MB-231, 0.25 µM) [%] | times stronger than the corresponding sulphonyl derivative (2a or 2b), MCF-7 [7, 9] [times] | times stronger than the corresponding sulphonyl derivative (2a or 2b), MDA-MB-231 [8, 9] [times]
1 |  |  | N.N.[Cl][Pt][Cl] [Cisplatin, cisplatin, reference compound] | > 100 | 3.6 ± 0.7 | 4.1 ± 0.5 | 7.1 ± 0.9 | at the control level | 93 | 82 | at the control level | 7.6 ± 0.6 | slightly affected growth of spheroids | slightly affected growth of spheroids |  |  |  |  |  | 
2 | > 10 | 130 to 134 | Cc1nn(-c2ccc(S(=O)(=O)N[C@H](CO)Cc3ccccc3)cc2)c2nnc(S(C)(=O)=O)nc12 [Compound 2a, (S)-N-(1-Hydroxy-3-phenylpropan-2-yl)-4-(3-methyl-5-(methylsulfonyl)-1H-pyrazolo[4,3-e][1,2,4]triazin-1-yl)benzenesulfonamide] |  |  |  |  |  |  |  |  |  |  |  | 6 ± 0.38 | 9.2 ± 0.78 |  |  |  | 
3 | > 10 | 124 to 128 | Cc1nn(-c2ccc(S(=O)(=O)N[C@@H](CO)Cc3ccccc3)cc2)c2nnc(S(C)(=O)=O)nc12 [Compound 2b, (R)-N-(1-Hydroxy-3-phenylpropan-2-yl)-4-(3-methyl-5-(methylsulfonyl)-1H-pyrazolo[4,3-e][1,2,4]triazin-1-yl)benzenesulfonamide] |  |  |  | 14.6 ± 1.7 |  |  |  |  | 5.8 ± 1.8 | slower formation of spheroids compared to untreated cells | slower formation of spheroids compared to untreated cells | 5.5 ± 0.39 | 7.8 ± 0.53 | 9.8 ± 1.2 | 5.7 ± 0.6 |  | 
4 | 3.5 ± 0.18 | 172 to 176 | Cc1nn(-c2ccc(S(=O)(=O)N[C@H](CO)Cc3ccccc3)cc2)c2nn3nnnc3nc12 [Compound 3a, (S)-N-(1-Hydroxy-3-phenylpropan-2-yl)-4-(7-methyl-5H-pyrazolo[4,3-e]tetrazolo[1,5-b][1,2,4]triazin-6-yl)benzenesulfonamide] |  |  |  |  |  |  |  |  |  |  |  | 0.35 ± 0.08 | 0.71 ± 0.14 |  |  | 17 | ~13
